The values below come from patent US6572788B2, “Amine oxide wood preservatives” (Lonza, Inc., priority 2000, dated 2003).

Converted amounts (≈) assume the structure as drawn. “And” between values parts separate entries of the source, which are not always exact repeats. Equal values may be shown once. Read-outs that look alike come from different tables or passages of the source.

For assay [1], the system named is stains, molds, and fungi. The assay can be described thus: Wood preserving efficacy on freshly cut green chestnut oak (dip treatment). Also on record: scale not given here.
The test system of assay [2] is stains, molds, and fungi. As to the kind of experiment: Wood preserving efficacy on freshly cut white birch wood (dip treatment, sealed bag). More on the design: key: 4 - Clean with no visible stain or mold; 3 - Trace amount of white/black fungal growth; 2 - Black and/or white fungal growth visible on all faces and ends; 1 - Heavy fungal growth. The procedure: The wood preserving efficacy of each aqueous test solution in Table 1 below was tested on freshly cut white birch wood as follows. All percentages in Table 1 are by weight. A branch of white birch tree measuring about 3 inches in diameter was cut into pieces about 6 inch in length. Each piece was then split into 4 sections. Each section was dipped into the test solution for about 1 minute and blotted with a paper towel to remove excess liquid. The sections were sealed in a clear plastic bag and stored at ambient conditions. The sections were observed after 1, 3, 7, and 12 weeks for the growth of stains, molds, and fungi. The aqueous test solutions were prepared by mixing the active ingredient with water.

In assay [3] the test system is C. globosum (soft rot decay fungi). The assay can be described thus: Agar dilution plate method, wood rot fungi. Format: cell-based. The following applies: for MIC: Chaetomium globosum, read-out: MIC (ppm of amine oxides). The procedure: (§1) The efficacy of the aqueous amine oxide solutions in Table 14 at various concentrations against the wood rot fungi T. versicolor (white rot fungi), G. trabeum (brown rot fungi), P. placenta (brown rot fungi), and C. globosum (soft rot decay fungi) were determined using the agar dilution plate method well known in the art. […] The percent retardation of the fungi was determined by the percentage change in the diameter of the fungi on the agar plate (i.e. Percent Retardation=((Diameter of Control)−(Diameter of Treated Fungi))/(Diameter of Control)*100%).
For orientation: In agar dilution, organisms are placed on agar that contains the substance at set levels.

The test system of assay [4] is T. versicolor (white rot fungi). As to the kind of experiment: Agar dilution plate method, wood rot fungi. In kind it is cell-based. The following applies: for MIC: Trametes versicolor, read-out: MIC (ppm of amine oxides). The procedure: as §1
The subject of assay [5] is G. trabeum (brown rot fungi). The assay can be described thus: Agar dilution plate method, wood rot fungi. In kind it is cell-based. As to conditions: for MIC: Gloeophyllum trabeum, read-out: MIC (ppm of amine oxides). The procedure: as §1
The test system of assay [6] is P. placenta (brown rot fungi). The assay can be described thus: Agar dilution plate method, wood rot fungi. In kind it is cell-based. As to conditions: for MIC: read-out: MIC (ppm of amine oxides). The procedure:
as §1

Assay [7] concerns Gloeophyllum trabeum (G. trabeum), a brown rot fungus. The assay can be described thus: Agar plate method, fungus growth inhibition. Format: cell-based. The protocol: (§2) The efficacy of aqueous solutions of amine oxides and didecyldimethyl ammonium chloride to inhibit fungus growth was evaluated by the agar plate method known in the art. […] The fungi tested were Trametes versicolor (T. versicolor), a white rot fungus; Gloeophyllum trabeum (G. trabeum), a brown rot fungus which is tolerant of arsenic and phenolic type wood preservatives; Poria placenta (P. placenta), a brown rot fungus which is tolerant to copper in wood preservatives; Lentinus lepideus (L. lepideus), a brown rot fungus which is tolerant to creosote; Coniophora puteana (C. puteana), a brown rot fungus; and Chaetomium globsum (C. globsum), a soft rot fungus.

Assay [8] relates to Trametes versicolor (T. versicolor), a white rot fungus. The assay can be described thus: Agar plate method, fungus growth inhibition. Format: cell-based. As to conditions: 50% retardation of growth. The protocol:
as §2

In assay [9] the test system is Poria placenta (P. placenta), a brown rot fungus. As to the kind of experiment: Agar plate method, fungus growth inhibition. Format: cell-based. The protocol: as §2
Assay [10] concerns Chaetomium globsum (C. globsum), a soft rot fungus. The assay can be described thus: Agar plate method, fungus growth inhibition. In kind it is cell-based. The protocol: as §2
For assay [11], the system named is stains, molds, and fungi. The assay can be described thus: Wood preserving efficacy on freshly cut beech wood (dip treatment). Also: key: 4 - Clean with no visible stain or mold; 3 - Trace amount of white/black fungal growth; 2 - Black and/or white fungal growth visible on all faces and ends; 1 - Heavy fungal growth. The following applies: beech wood pieces (Example 15). The protocol: The wood preserving efficacy of each aqueous test solution in Table 18 below was tested on freshly cut beech wood (Fagus grandifolia Ehrh.) as follows. All percentages in Table 18 are by weight. A 1″ branch of a beech tree was split into two pieces. The bark was left on the pieces. Each piece was dipped into the test solution for about 1 minute and blotted with a paper towel to remove excess liquid. […] The aqueous test solutions were prepared by mixing the active ingredient with water.

The subject of assay [12] is stains, molds, and fungi. As to the kind of experiment: Wood preserving efficacy on freshly cut tulip wood (dip treatment). Also: key: 4 - Clean with no visible stain or mold; 3 - Trace amount of white/black fungal growth; 2 - Black and/or white fungal growth visible on all faces and ends; 1 - Heavy fungal growth. The protocol: The wood preserving efficacy of each aqueous test solution in Table 17 below was tested on freshly cut tulip wood (also known as Tulip-Popular, Yellow Popular, and Liriodendron tulipfera L.) as follows. All percentages in Table 17 are by weight. Pieces of tulip wood cut from a 4″ debarked branch were cut into pieces. Each piece was then split into 4 sections. Each section was dipped into the test solution for about 1 minute and blotted with a paper towel to remove excess liquid. The sections were sealed in a clear plastic bag and stored at ambient conditions. The sections were observed after 1, 3, 7, and 11 weeks for the growth of stains, molds, and fungi. The aqueous test solutions were prepared by mixing the active ingredient with water.

Where [13] appears, read: C. globosum, 100% growth retardation, Table 14.
Where [14] appears, read: T. versicolor, 100% growth retardation, Table 14.
Setting [15] is: G. trabeum, 100% growth retardation, Table 14.
[16] abbreviates: P. placenta, 100% growth retardation, Table 14.
[17] abbreviates: 3 weeks, listed as 0.5% Dodecyl DMAO.
Where [18] appears, read: 3 weeks, listed as 1.0% Dodecyl DMAO.
Where [19] appears, read: 7 weeks, listed as 0.5% Dodecyl DMAO.
[20] abbreviates: 7 weeks, listed as 1.0% Dodecyl DMAO.
Setting [21] is: 11 weeks, listed as 0.5% Dodecyl DMAO.
The mark [22] stands for this setting: 11 weeks, listed as 1.0% Dodecyl DMAO.

Take `CC(O)(P(=O)(O)O)P(=O)(O)O` [1-Hydroxyethylidene-1,1-diphosphonic acid]: the “Rating of treated green chestnut oak sections vs. Time” value in the assay with stains, molds, and fungi [1] (2 weeks) is 2; with stains, molds, and fungi [1] (4 weeks), 2; with stains, molds, and fungi [1] (5 weeks), 1; in the assay on stains, molds, and fungi [1] (9 weeks), 1.
Usually MIC stands for the lowest concentration found to suppress growth. Consider `CCCCCCCCCC[N+](C)(C)[O-]` [Decyldimethylamine oxide], for which the “Rating of treated white birch sections vs. Time” value in the assay on stains, molds, and fungi [2] (1 week) was determined as 3; in the assay on stains, molds, and fungi [2] (3 weeks), 2; in the assay on stains, molds, and fungi [2] (7 weeks), 2; with stains, molds, and fungi [2] (12 weeks), 2. For the same molecule, the minimal inhibitory concentration (MIC) was greater than 1000 µg/mL in [3] (setting [13]), 750 µg/mL (≈ 3.72 mM) in assay [4] (setting [14]), 250 µg/mL (≈ 1.24 mM) in [5] (setting [15]) and 500 µg/mL (≈ 2.48 mM) in assay [6] (setting [16]). Moreover, the IC50 in assay [7] is 20-40 ppm; in [8], 300-500 ppm; in assay [9], 15-25 ppm; in [10] it was 50-100 ppm.
As for `CCCCCCCCCCCC[N+](C)(C)[O-]` [Dodecyl dimethylamine oxide, dodecyl dimethylamine oxide], the MIC is greater than 1000 µg/mL in [3], 250 µg/mL (≈ 1.09 mM) in [4], 250 µg/mL (≈ 1.09 mM) in [5] and 250 µg/mL (≈ 1.09 mM) in [6]. Moreover, the “Rating of treated tulip sections vs. Time” value was 4 with stains, molds, and fungi [11] (1 week, listed as 0.5% Dodecyl DMAO); 4 and 3.5 in the assay with stains, molds, and fungi [11] (1 week, listed as 1.0% Dodecyl DMAO); 4 in the assay with stains, molds, and fungi [11] (setting [17]); 2 and 3 with stains, molds, and fungi [11] (setting [18]); 2.5 in the assay with stains, molds, and fungi [11] (setting [19]); 2 in the assay with stains, molds, and fungi [11] (setting [20]). Besides, the “Rating of treated tulip sections vs. Time” value with stains, molds, and fungi [11] (setting [21]) was 2.5; in the assay with stains, molds, and fungi [11] (setting [22]), 2 and 1; in the assay on stains, molds, and fungi [12] (1 week), 4; with stains, molds, and fungi [12] (setting [17]), 3; with stains, molds, and fungi [12] (setting [18]), 4; with stains, molds, and fungi [12] (setting [19]), 2. Further, the “Rating of treated tulip sections vs. Time” value was 4 and 3 in the assay with stains, molds, and fungi [12] (setting [20]); 1 in the assay on stains, molds, and fungi [12] (setting [21]); 4 in the assay with stains, molds, and fungi [12] (setting [22]). Moreover, the “Rating of treated green chestnut oak sections vs. Time” value is listed as 3 in the assay on stains, molds, and fungi [1] (2 weeks); 2 in the assay on stains, molds, and fungi [1] (4 weeks); 2 in the assay on stains, molds, and fungi [1] (5 weeks); 1 with stains, molds, and fungi [1] (9 weeks).
Consider `CCCCCCCCCCCC[N+](C)([O-])Cc1ccccc1` (centres unmarked) [Dodecyl-BMAO], for which the “MIC (ppm of amine oxides)” value in assay [3] (setting [13]) was greater than 1000 ppm; in assay [4] (setting [14]) it was greater than 1000 ppm; in assay [5] (setting [15]), 1000 ppm; in assay [6] (setting [16]) it was greater than 1000 ppm.
As for `CCCCCCCCCCCC[N+]1([O-])CCOCC1` [Lauryl morpholine N-oxide, lauryl morpholine N-oxide], the “MIC (ppm of amine oxides)” value in [3] (setting [13]) is reported as greater than 1000 ppm; in [4] (setting [14]), 750 ppm; in [5] (setting [15]), 1000 ppm; in assay [6] (setting [16]), 500 ppm.
As for `CCCCCCCCCCCCCCCCCC[N+](C)(C)[O-]` [Octadecyl dimethylamine oxide], the MIC in assay [3] (setting [13]), in assay [4] (setting [14]), in [5] (setting [15]) and in assay [6] (setting [16]) was greater than 1000 µg/mL each time. Further, the IC50 in assay [7] is reported as 250 ppm; in assay [8], 800 ppm; in assay [9], 20-50 ppm; in [10] it was 600 ppm.
Consider `CCCCCCCC[N+](C)(C)[O-]` [Octyldimethylamine oxide], for which the MIC in assay [3] (setting [13]) is greater than 1000 µg/mL; in [4] (setting [14]), 750 µg/mL (≈ 4.33 mM); in [5] (setting [15]) it was 1000 µg/mL (≈ 5.77 mM); in assay [6] (setting [16]), 1000 µg/mL (≈ 5.77 mM). Also, the IC50 in [7] is reported as 250-400 ppm; in assay [8], 800 ppm; in assay [9] it was 300 ppm; in assay [10], 400 ppm.
On to `CCCCCCCCCCCCCC[N+](C)(C)[O-]` [Tetradecyl dimethylamine oxide], for which the “Rating of treated white birch sections vs. Time” value worked out at 4 in the assay on stains, molds, and fungi [2] (1 week); 3 with stains, molds, and fungi [2] (3 weeks); 2 with stains, molds, and fungi [2] (7 weeks); 2 in the assay on stains, molds, and fungi [2] (12 weeks). Further, the MIC in assay [3] (setting [13]), in assay [4] (setting [14]), in [5] (setting [15]) and in assay [6] (setting [16]) was greater than 1000 µg/mL throughout. For the same molecule, the IC50 in [7] was 15-25 ppm; in assay [8] it was 70 ppm; in assay [9], 2-5 ppm; in [10], 80-100 ppm.
With Coco-di(hydroxyethyl)amine oxide, the “MIC (ppm of amine oxides)” value is on record as greater than 1000 ppm in [3] (setting [13]), 500 ppm in assay [4] (setting [14]), 500 ppm in assay [5] (setting [15]) and 500 ppm in [6] (setting [16]).
As for Tallow di(hydroxyethyl)amine oxide, the “MIC (ppm of amine oxides)” value in assay [3] (setting [13]), in assay [4] (setting [14]), in assay [5] (setting [15]) and in assay [6] (setting [16]) was greater than 1000 ppm each time.
